These results are taken from US9751882B2, “Diaryl[A, G]quinolizidine compound, preparation method therefor, pharmaceutical composition, and uses thereof” (SHANGHAI INSTITUTE OF MATERIA MEDICA, CHINESE ACADEMY OF …, priority 2012, dated 2017).

In general, IC50 refers to the midpoint of a concentration-inhibition curve. Higher therefore signals lower potency. As a reminder, the Ki is the dissociation constant of the complex between target and ligand, obtained from inhibition or displacement. Lower therefore signals a stronger hold on the target.

One assay addresses dopamine D2 receptor (Rattus norvegicus, UniProt P61169). As to the kind of experiment: Radioligand binding affinity on dopamine D2 receptor ([3H]Spiperone). The conditions noted are these: D2 receptor protein expressed in HEK-293 cells. As to the method: (§1) The compound of the invention at different concentrations (10^−5 M-10^−11 M), an isotope receptor ligand and a receptor protein were loaded into a reaction tube, incubated at 30° C. in a water bath for 60 min, and then terminated in a refrigerator. The mixture was filtered through suction filtration using GF/C glass fiber paper on a Millipore filter (millipore) cell sample collector, and dried. The resulting sample was placed into a 0.5 mL tube, added with 500 μL of liquid scintillation fluid, and counted for measuring the intensity of radioativity.
(§2) Firstly, the above […] were dissolved in DMSO and then diluted with double distilled water to the appropriate concentration (10^−5 M-10^−11 M).
(§3) (+) Butaclamo was purchased from RBI Company, GF/C glass fiber filter paper was purchased from Whatman Co., liquid scintillation fluid (dopamine D1, D2 receptors)/liposoluble scintillation fluid (5-HT1A. 5-HT2A receptor), Beckman LS-6500 multi-function liquid scintillation counter.

The next assay deals with T1, 5-HT1A receptor (Homo sapiens, UniProt P08908).
T1 sequence (P08908 1-422): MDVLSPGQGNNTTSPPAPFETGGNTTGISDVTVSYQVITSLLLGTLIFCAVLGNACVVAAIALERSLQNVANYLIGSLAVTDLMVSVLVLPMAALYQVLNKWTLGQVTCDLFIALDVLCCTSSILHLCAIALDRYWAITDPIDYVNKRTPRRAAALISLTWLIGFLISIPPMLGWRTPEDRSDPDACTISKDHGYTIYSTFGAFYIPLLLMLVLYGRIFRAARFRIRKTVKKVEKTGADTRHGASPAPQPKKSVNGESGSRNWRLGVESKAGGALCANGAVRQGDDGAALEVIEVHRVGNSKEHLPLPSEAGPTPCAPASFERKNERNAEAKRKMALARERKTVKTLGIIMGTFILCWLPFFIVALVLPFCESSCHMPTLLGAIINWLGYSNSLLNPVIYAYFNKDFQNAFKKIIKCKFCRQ
As to the kind of experiment: Radioligand binding affinity on 5-HT1A receptor ([3H]8-OH-DPAT). The conditions noted are these: 5-HT1A receptor protein expressed in HEK-293 cells. On the procedure: (§4) (1) Determination of the affinity of the diarylo[a,g]quinolizines of formula (I) and derivatives thereof on dopamine D1, dopamine D2, 5-HT1A and 5-HT2A receptors.
as §1
For 5-HT1A receptor: isotope receptor ligand [3H]8-OH-DPAT; 5-HT1A receptor protein expressed in HEK-293 cells;
as §2, §3

A further assay has as its target T2, 5-HT2A receptor (Homo sapiens, UniProt P28223).
T2 construct: expressed in transfected cells; host or cells: HEK-293
As to the kind of experiment: Radioligand binding affinity on 5-HT2A receptor ([3H]-Ketanserin). The conditions noted are these: 5-HT2A receptor protein expressed in HEK-293 cells. On the procedure: as §4, §1
For 5-HT2A receptor: isotope receptor ligand [3H]-Ketanserin; 5-HT2A receptor protein expressed in HEK-293 cells;
as §2, §3

For a further assay, the target named is dopamine D1 receptor (Macaca mulatta, UniProt O77680). Nature of the assay: Radioligand binding affinity on dopamine D1 receptor ([3H]-SCH23390). As to conditions: D1 receptor protein expressed in HEK-293 cells. As to the method: as §1, §2, §3
Sequence of dopamine D1 receptor (O77680 whole entry): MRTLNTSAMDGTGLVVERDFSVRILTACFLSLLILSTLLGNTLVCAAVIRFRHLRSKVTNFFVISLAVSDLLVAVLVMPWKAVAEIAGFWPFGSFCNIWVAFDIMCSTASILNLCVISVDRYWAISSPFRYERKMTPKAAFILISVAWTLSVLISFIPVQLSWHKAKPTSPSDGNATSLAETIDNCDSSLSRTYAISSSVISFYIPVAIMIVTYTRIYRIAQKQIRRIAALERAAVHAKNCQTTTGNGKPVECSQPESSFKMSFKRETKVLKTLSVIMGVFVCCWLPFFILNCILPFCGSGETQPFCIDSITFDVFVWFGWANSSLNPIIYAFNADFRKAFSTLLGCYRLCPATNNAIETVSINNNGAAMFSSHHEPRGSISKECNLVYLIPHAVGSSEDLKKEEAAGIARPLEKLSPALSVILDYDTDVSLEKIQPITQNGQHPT

Sequence of dopamine D2 receptor (P61169 whole entry): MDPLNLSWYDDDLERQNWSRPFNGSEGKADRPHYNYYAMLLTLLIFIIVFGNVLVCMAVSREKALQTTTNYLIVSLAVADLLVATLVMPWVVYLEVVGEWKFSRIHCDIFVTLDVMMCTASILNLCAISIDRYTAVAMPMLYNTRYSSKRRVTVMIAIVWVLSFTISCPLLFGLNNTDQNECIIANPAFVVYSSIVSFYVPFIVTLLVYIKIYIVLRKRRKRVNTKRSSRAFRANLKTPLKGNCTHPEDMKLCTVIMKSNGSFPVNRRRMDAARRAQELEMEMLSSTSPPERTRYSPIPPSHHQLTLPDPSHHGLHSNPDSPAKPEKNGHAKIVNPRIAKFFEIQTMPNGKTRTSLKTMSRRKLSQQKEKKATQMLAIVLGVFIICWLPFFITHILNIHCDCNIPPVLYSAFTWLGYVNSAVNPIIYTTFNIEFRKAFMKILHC
T2 sequence (P28223 whole entry): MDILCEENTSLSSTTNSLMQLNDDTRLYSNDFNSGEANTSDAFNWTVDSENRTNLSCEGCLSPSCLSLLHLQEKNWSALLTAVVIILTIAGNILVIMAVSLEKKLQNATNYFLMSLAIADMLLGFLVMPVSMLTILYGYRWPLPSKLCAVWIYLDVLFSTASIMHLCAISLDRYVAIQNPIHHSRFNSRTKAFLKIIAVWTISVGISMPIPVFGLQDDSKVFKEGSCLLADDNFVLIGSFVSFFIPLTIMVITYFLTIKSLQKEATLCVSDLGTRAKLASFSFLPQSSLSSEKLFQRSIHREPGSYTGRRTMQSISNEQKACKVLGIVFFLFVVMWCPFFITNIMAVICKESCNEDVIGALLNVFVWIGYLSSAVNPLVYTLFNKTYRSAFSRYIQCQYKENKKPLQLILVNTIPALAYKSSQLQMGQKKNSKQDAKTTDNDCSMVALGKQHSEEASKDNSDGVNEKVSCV

For the compound `CCCCc1cc2c(s1)C[C@H]1c3cc(O)c(OC)cc3CCN1C2` [DS007, (S)-2-hydroxy-3-methoxy-10-n-butyl-5,8,12,12a-tetrahydro-6H-benzo[a]thieno[3,2-g]quinolizine], at dopamine D2 receptor, the “D2 receptor inhibition %” value amounted to 99.53%, the half-maximal inhibitory concentration (IC50) turned out to be 76.3 ± 8.46 nM and the Ki was 17.6 ± 1.95 nM. At 5-HT1A receptor, the “5-HT1A receptor inhibition %” value is given as 87.03%, the IC50 worked out at 1080 ± 96.7 nM and affinity was put at a Ki of 864 ± 77.3 nM. On 5-HT2A receptor, the “5-HT2A receptor inhibition %” value is on record as 53.34%. In addition, on dopamine D1 receptor, the “D1 receptor inhibition %” value is reported as 97.62%, the IC50 came out at 113 ± 13 nM and the affinity corresponds to a Ki of 62.2 ± 7.13 nM.

`COc1cc2c(cc1O)[C@@H]1Cc3sc(CCCl)cc3CN1CC2` [DS013, (S)-2-hydroxy-3-methoxy-10-(2-chloroethyl)-5,8,12, 12a-tetrahydro-6H-benzo[a]thieno[3,2-g]quinolizine]: on dopamine D2 receptor, the “D2 receptor inhibition %” value is given as 98.37%; the 50% inhibitory concentration (IC50) was 146 ± 7.19 nM; the affinity, expressed as Ki, was 34.4 ± 2.72 nM. Further, on 5-HT1A receptor, the “5-HT1A receptor inhibition %” value was determined as 89.84%, the half-maximal inhibitory concentration (IC50) was 692 ± 102 nM and the affinity corresponds to a Ki of 553 ± 81.6 nM. The “5-HT2A receptor inhibition %” value at 5-HT2A receptor was determined as 34.81%. Further, on dopamine D1 receptor, the “D1 receptor inhibition %” value is 98.64% and the affinity, expressed as Ki, was 16.4 ± 2.81 nM.
